Test results published in article PMC6270530, “Structural Characterization of de Novo Designed L5K5W Model Peptide Isomers with Potent Antimicrobial and Varied Hemolytic Activities” (Molecules, 2013).
No end group written: not given here.

Assays:
[1] = tested on: all of the 9 strains tested; type: cell-based, Gram-positive and Gram-negative bacteria; details: against all of the 9 strains tested
Experimental: (§1) Table 1 summarizes the MIC values of our model peptide isomers against various bacterial species, including four Gram-positive, five Gram-negative and a multi-drug resistant strain. […] In addition, all of the peptides were fairly active (MICs ≤ 16 μg/mL) against the MRSA-TK784 strain, which is not susceptible to β-lactam antibiotics and protein synthesis inhibitors and moderately resistant to vancomycin [21, 42].
(§2) The antimicrobial activity of each peptide was determined against four strains of Gram-positive bacteria (Bacillus subtilis ATCC 6633, Staphylococcus aureus ATCC 6538p, Staphylococcus epidermis ATCC 12228, and Micrococcus luteus ATCC 10240) and five strains of Gram-negative bacteria (Escherichia coli ATCC 25922, Shigella dysentariae ATCC 9752, Salmonella typhomurium ATCC 14028, Klebsiella pneumoniae ATCC 10031, and Pseudomonas aeruginosa ATCC 27853). In addition, a methicillin-resistant Staphylococcus aureus strain, MRSA-TK784 [21, 42], was employed as a multi-drug resistant bacterium. Antimicrobial susceptibility was measured as the minimal inhibitory concentration (MIC), which was determined by the standard broth microdilution method, as described previously. […] The tests were performed in triplicate, and the MIC values that were reproduced twice or three times in the three independent measurements were recorded.

[2] = tested on: Shigella dysentariae ATCC 9752; type: cell-based; details: broth microdilution, 1–128 μg/mL two-fold dilutions; triplicate, value reproduced twice or three times
Experimental: as §2

[3] = tested on: 4 Gram-positive strains tested; type: cell-based, Gram-positive bacteria; details: against 4 Gram-positive strains tested
Experimental: as §1, §2

[4] = tested on: 5 Gram-negative strains tested; type: cell-based, Gram-negative bacteria; details: against 5 Gram-negative strains tested
Experimental: as §1, §2

[5] = tested on: MRSA-TK784; type: cell-based, methicillin-resistant Staphylococcus aureus; details: Methicillin-Resistant S. aureus; broth microdilution, 1–128 μg/mL two-fold dilutions; triplicate
Experimental: as §2

[6] = tested on: human red blood cells; type: cell-based
Experimental: The hemolytic assay was performed as described previously. In brief, suspensions of human red blood cells (10% v/v in PBS) were treated for 1 h with various concentrations (1–128 μg/mL, two-fold serial dilutions) of the peptides. The absorbance of the supernatant was then measured at 550 nm. The relative value to 100% hemolysis of human red blood cells treated with 0.2% Triton X-100 was defined as the percentage of hemolysis. The tests were performed using triplicate samples, and the average values of the three independent measurements were recorded. The minimal hemolytic concentration (MHC) value was determined as the lowest peptide concentration that produces more than 5% hemolysis.

Substance	GM (geometric mean of MICs), Gram (+,−) [1]	Minimal inhibitory concentration, S. dysentariae [2]	GM (geometric mean of MICs), Gram (+) [3]	GM (geometric mean of MICs), Gram (−) [4]	Minimal inhibitory concentration, MRSA-TK784 [5]	hemolytic activity (in words) [6]
KLLKWLKKLLK-NH2 [W5]	2.3 µg/mL	2 µg/mL	2.0 µg/mL	2.6 µg/mL	–	–
LLKKLLKWLKK-NH2 [W8]	4.0 µg/mL	4 µg/mL	3.4 µg/mL	4.6 µg/mL	–	–
LKKLLKWLKKL-NH2 [W7]	2.7 µg/mL	2 µg/mL	2.4 µg/mL	3.0 µg/mL	–	–
KLLKKLLKWLK-NH2 [W9]	2.3 µg/mL	2 µg/mL	2.4 µg/mL	2.3 µg/mL	–	–
KKLLKKLLKWL-NH2 [W10]	1.5 µg/mL	1 µg/mL	1.2 µg/mL	1.7 µg/mL	–	–
WLKKLLKKLLK-NH2 [W1]	2.7 µg/mL	2 µg/mL	2.4 µg/mL	3.0 µg/mL	8 µg/mL	–
KKLLKWLKKLL-NH2 [W6]	3.2 µg/mL	2 µg/mL	–	3.5 µg/mL	–	somewhat hemolytic
KWLKKLLKKLL-NH2 [W2]	2.3 µg/mL	1 µg/mL	2.4 µg/mL	2.3 µg/mL	–	–
LLKWLKKLLKK-NH2 [W4]	2.9 µg/mL	2 µg/mL	2.4 µg/mL	3.5 µg/mL	–	–
LKKLLKKLLKW-NH2 [W11]	2.9 µg/mL	2 µg/mL	2.4 µg/mL	3.5 µg/mL	16 µg/mL	–
LKWLKKLLKKL-NH2 [W3]	3.2 µg/mL	2 µg/mL	–	3.5 µg/mL	–	–
